From ChEMBL document CHEMBL1201862, “PubChem BioAssay data set” (2004)
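How tested: cells in 96-well plates exposed to compound for 48 hours at five concentrations. GI50: concentration for 50% inhibition of growth.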 Active and inactive are the calls of the source. Rule as the data show it: active = GI50 up to about 1.1 µM and inactive = higher.

Tests used:
Assay in all cases: growth of human tumour cells (NCI), 48 h
RXF 393 = tested on: RXF 393
786-0 = tested on: 786-0
HCC 2998 = tested on: HCC 2998
SF-539 = tested on: SF-539
UO-31 = tested on: UO-31
LOX IMVI = tested on: LOX IMVI
SK-MEL-2 = tested on: SK-MEL-2
CAKI-1 = tested on: CAKI-1
SNB-75 = tested on: SNB-75
KM12 = tested on: KM12
KM-20L2 = tested on: KM-20L2
UACC-62 = tested on: UACC-62
SK-OV-3 = tested on: SK-OV-3
SNB-19 = tested on: SNB-19
RPMI-8226 = tested on: RPMI-8226
K562 = tested on: K562

Measured: GI50

CC(C)(C)OC(=O)N[C@H]1CC(O)c2ccccc2N(CC(=O)O)C1=O (stereo partly drawn)
inactive: RXF 393 > 100 µM | 786-0 > 100 µM | HCC 2998 > 100 µM | SF-539 > 100 µM | UO-31 > 100 µM | LOX IMVI > 100 µM | SK-MEL-2 > 100 µM | CAKI-1 > 100 µM | SNB-75 > 100 µM | KM12 > 100 µM | KM-20L2 > 100 µM | UACC-62 > 100 µM | SK-OV-3 > 100 µM | SNB-19 > 100 µM

Cc1cc2c(C)n(Cc3ccc(Cl)cc3Cl)nc2c(C(=O)O)c1C
inactive: RXF 393 > 100 µM | 786-0 > 100 µM | HCC 2998 > 100 µM | SF-539 > 100 µM | UO-31 > 100 µM | LOX IMVI > 100 µM | SK-MEL-2 > 100 µM | SNB-75 > 100 µM | KM-20L2 > 100 µM | RPMI-8226 > 100 µM | UACC-62 96.8 µM | SK-OV-3 > 100 µM | SNB-19 > 100 µM

C/C=C1\CCC2c3[nH]c4ccccc4c3CCN2C1 (stereo not drawn)
inactive: RXF 393 66.4 µM | 786-0 70.1 µM | SF-539 > 100 µM | K562 43.6 µM | UO-31 38.6 µM | SK-MEL-2 > 100 µM | CAKI-1 > 100 µM | SNB-75 61.7 µM | KM12 > 100 µM | KM-20L2 45.6 µM | UACC-62 > 100 µM | SK-OV-3 > 100 µM | SNB-19 > 100 µM

COc1ccc(NC(=O)C2=CC(=O)c3ccc(O)cc3C2=O)c(OC)c1
inactive: RXF 393 > 100 µM | 786-0 > 100 µM | HCC 2998 > 100 µM | SF-539 > 100 µM | K562 > 100 µM | LOX IMVI > 100 µM | CAKI-1 > 100 µM | SNB-75 > 100 µM | KM12 > 100 µM | KM-20L2 > 100 µM | RPMI-8226 > 100 µM | UACC-62 > 100 µM | SNB-19 > 100 µM

Nc1ccc(CCN2CCN(c3cccc(C(F)(F)F)c3)CC2)cc1
inactive: RXF 393 89.5 µM | 786-0 84.3 µM | HCC 2998 17.3 µM | SF-539 > 100 µM | K562 70.1 µM | UO-31 5.74 µM | LOX IMVI > 100 µM | CAKI-1 > 100 µM | SNB-75 > 100 µM | KM12 > 100 µM | KM-20L2 > 100 µM | RPMI-8226 45.2 µM | UACC-62 > 100 µM | SK-OV-3 > 100 µM | SNB-19 > 100 µM

O=C(O)C1CC2CC(=O)C1C2 (stereo not drawn)
inactive: RXF 393 > 100 µM | 786-0 > 100 µM | SF-539 > 100 µM | K562 > 100 µM | UO-31 > 100 µM | LOX IMVI > 100 µM | SK-MEL-2 > 100 µM | CAKI-1 > 100 µM | SNB-75 > 100 µM | KM12 > 100 µM | KM-20L2 > 100 µM | RPMI-8226 > 100 µM | UACC-62 > 100 µM | SK-OV-3 > 100 µM | SNB-19 > 100 µM

COc1cc2cc3c4c(cc(OC)c(OC)c4c2cc1OC)CCN3C(=O)CCCC(=O)O
inactive: RXF 393 > 100 µM | 786-0 > 100 µM | HCC 2998 > 100 µM | SF-539 > 100 µM | K562 > 100 µM | UO-31 > 100 µM | LOX IMVI > 100 µM | SK-MEL-2 > 100 µM | CAKI-1 > 100 µM | KM12 > 100 µM | KM-20L2 > 100 µM | RPMI-8226 > 100 µM | UACC-62 > 100 µM | SK-OV-3 > 100 µM | SNB-19 > 100 µM

CCCCC(C(=O)C(=O)Nc1ccc(C)cc1C)C(=O)C(C)C (stereo not drawn)
inactive: RXF 393 > 100 µM | 786-0 > 100 µM | HCC 2998 > 100 µM | SF-539 > 100 µM | K562 > 100 µM | UO-31 > 100 µM | LOX IMVI > 100 µM | SK-MEL-2 > 100 µM | CAKI-1 > 100 µM | SNB-75 > 100 µM | KM12 > 100 µM | KM-20L2 > 100 µM | RPMI-8226 > 100 µM | UACC-62 > 100 µM | SNB-19 > 100 µM

CC(=O)NC(CCCNC(=O)N(CCCl)N=O)C(=O)NCc1ccccc1 (stereo not drawn)
inactive: RXF 393 > 100 µM | 786-0 6.87 µM | HCC 2998 > 100 µM | SF-539 11.7 µM | K562 > 100 µM | UO-31 > 100 µM | SK-MEL-2 > 100 µM | CAKI-1 > 100 µM | SNB-75 9.71 µM | KM12 > 100 µM | KM-20L2 > 100 µM | RPMI-8226 > 100 µM | UACC-62 > 100 µM | SNB-19 22.6 µM

CC12Oc3ccc4ccccc4c3CC1Cc1c(ccc3ccccc13)O2 (stereo not drawn)
inactive: RXF 393 27.2 µM | 786-0 40.2 µM | HCC 2998 > 100 µM | SF-539 60.4 µM | UO-31 > 100 µM | LOX IMVI 56.2 µM | SK-MEL-2 48 µM | CAKI-1 48 µM | SNB-75 7.08 µM | KM12 > 100 µM | KM-20L2 > 100 µM | SNB-19 45.5 µM

NN/C(Cc1ccccc1)=N/NC(N)=S
inactive: RXF 393 > 100 µM | 786-0 > 100 µM | HCC 2998 > 100 µM | SF-539 > 100 µM | K562 > 100 µM | UO-31 > 100 µM | LOX IMVI 82.6 µM | SK-MEL-2 > 100 µM | SNB-75 > 100 µM | KM12 96.4 µM | KM-20L2 > 100 µM | RPMI-8226 > 100 µM | UACC-62 > 100 µM | SK-OV-3 > 100 µM

N=C(N)/N=C(/C=C/c1ccccc1)CC1OC(=O)c2ccccc21 (stereo not drawn)
inactive: RXF 393 > 100 µM | 786-0 > 100 µM | HCC 2998 > 100 µM | SF-539 > 100 µM | K562 > 100 µM | UO-31 > 100 µM | LOX IMVI > 100 µM | SK-MEL-2 > 100 µM | CAKI-1 > 100 µM | SNB-75 > 100 µM | KM12 > 100 µM | KM-20L2 > 100 µM | RPMI-8226 > 100 µM | UACC-62 42 µM | SNB-19 > 100 µM

C1=CC2SSSC2C1 (stereo not drawn)
inactive: RXF 393 > 100 µM | 786-0 > 100 µM | HCC 2998 > 100 µM | SF-539 > 100 µM | K562 > 100 µM | UO-31 > 100 µM | LOX IMVI > 100 µM | SK-MEL-2 > 100 µM | SNB-75 > 100 µM | KM12 > 100 µM | KM-20L2 > 100 µM | RPMI-8226 > 100 µM | UACC-62 > 100 µM | SK-OV-3 > 100 µM | SNB-19 > 100 µM

COc1ccc(CCN(C)C2CCC(C#N)(c3ccc(OC)c(OC)c3)CC2)cc1OC (stereo not drawn)
inactive: RXF 393 > 100 µM | 786-0 > 100 µM | HCC 2998 34.8 µM | SF-539 > 100 µM | K562 39.1 µM | UO-31 > 100 µM | LOX IMVI > 100 µM | SK-MEL-2 > 100 µM | SNB-75 > 100 µM | KM12 > 100 µM | KM-20L2 48.4 µM | RPMI-8226 54 µM | UACC-62 > 100 µM | SK-OV-3 > 100 µM | SNB-19 > 100 µM
